Results: patent US20170190705A1, “Compositions and Methods for Inhibiting BMP” (THE BRIGHAM AND WOMAN'S HOSPITAL, INC., priority 2014, published 2017)
Like-named read-outs stand apart in the source and are kept apart here.

Experiments:
MER = molecular target: T1, MER (Homo sapiens, UniProt Q12866); assay: Kinome profiling MER; assay type: biochemical; conditions: read-out: Inhibitory activity MER; for inhibition at 0.1 µM: 100 nM
T1 sequence (Q12866 21-999): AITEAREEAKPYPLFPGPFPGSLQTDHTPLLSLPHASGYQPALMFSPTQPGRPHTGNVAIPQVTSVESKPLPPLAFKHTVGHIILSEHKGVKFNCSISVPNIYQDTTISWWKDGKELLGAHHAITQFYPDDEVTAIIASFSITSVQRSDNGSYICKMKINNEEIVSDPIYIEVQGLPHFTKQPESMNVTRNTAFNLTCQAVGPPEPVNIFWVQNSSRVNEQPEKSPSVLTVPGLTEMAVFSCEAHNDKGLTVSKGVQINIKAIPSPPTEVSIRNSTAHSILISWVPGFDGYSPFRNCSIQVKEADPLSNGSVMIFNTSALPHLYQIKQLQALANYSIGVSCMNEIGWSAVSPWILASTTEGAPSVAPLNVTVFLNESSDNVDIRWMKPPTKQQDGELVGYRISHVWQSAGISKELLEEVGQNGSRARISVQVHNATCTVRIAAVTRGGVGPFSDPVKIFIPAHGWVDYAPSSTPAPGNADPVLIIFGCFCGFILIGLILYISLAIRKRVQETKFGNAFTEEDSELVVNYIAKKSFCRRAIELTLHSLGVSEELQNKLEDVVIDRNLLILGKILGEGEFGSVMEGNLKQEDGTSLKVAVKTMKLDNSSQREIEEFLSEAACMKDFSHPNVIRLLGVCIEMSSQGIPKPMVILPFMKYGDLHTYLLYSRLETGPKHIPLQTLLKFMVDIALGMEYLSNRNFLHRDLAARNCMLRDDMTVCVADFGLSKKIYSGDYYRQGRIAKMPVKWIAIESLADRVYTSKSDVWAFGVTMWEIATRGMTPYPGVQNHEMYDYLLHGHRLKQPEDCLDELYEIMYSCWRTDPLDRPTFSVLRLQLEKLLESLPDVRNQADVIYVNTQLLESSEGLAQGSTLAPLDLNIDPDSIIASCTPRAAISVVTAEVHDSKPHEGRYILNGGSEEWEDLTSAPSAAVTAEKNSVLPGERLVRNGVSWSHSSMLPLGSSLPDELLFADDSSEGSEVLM
Experimental: (§1) . The kinome-wide selectivity was determined following the methods previously reported by Mohedas et al., ACS Chem Biol 2013, 8, 1291-1302 and Sanvitale et al., PLoS One 2013, 8, e62721.

TNIK = TNIK (Homo sapiens, UniProt Q9UKE5); assay: Kinome profiling TNIK; assay type: biochemical; conditions: Table 4, read-out: Inhibitory Activity TNIK
Experimental: as §1

MAP4K5 = MAP4K5 (Homo sapiens, UniProt Q9Y4K4); assay: Kinome profiling MAP4K5; assay type: biochemical; conditions: Table 4, read-out: Inhibitory Activity MAP4K5
Experimental: as §1

ALK2 = ALK2 (Homo sapiens, UniProt Q04771); assay: Kinome profiling ALK2; assay type: biochemical; conditions: Table 4, read-out: Inhibitory Activity ALK2
Experimental: as §1

RSK2 = RSK2 (Homo sapiens, UniProt P51812); assay: Kinome profiling RSK2; assay type: biochemical; conditions: read-out: Inhibitory activity RSK2; for inhibition at 0.1 µM: 100 nM
Experimental: as §1

BMP6 = assay: Ligand induced transcriptional activity assay BMP6 (BRE-Luc); assay type: cell-based
JAK1 = JAK1 (Homo sapiens, UniProt P23458); assay: Kinome profiling JAK1; assay type: biochemical; conditions: read-out: Inhibitory activity JAK1; for inhibition at 0.1 µM: 100 nM
Experimental: as §1

TYK2 = TYK2 (Homo sapiens, UniProt P29597); assay: Kinome profiling TYK2; assay type: biochemical; conditions: read-out: Inhibitory activity TYK2; for inhibition at 0.1 µM: 100 nM
Experimental: as §1

BTK = BTK (Homo sapiens, UniProt Q06187); assay: Kinome profiling BTK; assay type: biochemical; conditions: read-out: Inhibitory activity BTK; for inhibition at 0.1 µM: 100 nM
Experimental: as §1

ALK6 = ALK6 (Homo sapiens, UniProt O00238); assay: Kinome profiling ALK6; assay type: biochemical; conditions: Table 4, read-out: Inhibitory Activity ALK6
Experimental: as §1

IGF1R = IGF1R (Homo sapiens, UniProt P08069); assay: Kinome profiling IGF1R; assay type: biochemical; conditions: read-out: Inhibitory activity IGF1R; for inhibition at 0.1 µM: 100 nM
Experimental: as §1

DYRK2 = molecular target: T2, DYRK2 (Homo sapiens, UniProt Q92630); assay: Kinome profiling DYRK2; assay type: biochemical; conditions: read-out: Inhibitory activity DYRK2; for inhibition at 0.1 µM: 100 nM
T2 sequence (Q92630 1-601): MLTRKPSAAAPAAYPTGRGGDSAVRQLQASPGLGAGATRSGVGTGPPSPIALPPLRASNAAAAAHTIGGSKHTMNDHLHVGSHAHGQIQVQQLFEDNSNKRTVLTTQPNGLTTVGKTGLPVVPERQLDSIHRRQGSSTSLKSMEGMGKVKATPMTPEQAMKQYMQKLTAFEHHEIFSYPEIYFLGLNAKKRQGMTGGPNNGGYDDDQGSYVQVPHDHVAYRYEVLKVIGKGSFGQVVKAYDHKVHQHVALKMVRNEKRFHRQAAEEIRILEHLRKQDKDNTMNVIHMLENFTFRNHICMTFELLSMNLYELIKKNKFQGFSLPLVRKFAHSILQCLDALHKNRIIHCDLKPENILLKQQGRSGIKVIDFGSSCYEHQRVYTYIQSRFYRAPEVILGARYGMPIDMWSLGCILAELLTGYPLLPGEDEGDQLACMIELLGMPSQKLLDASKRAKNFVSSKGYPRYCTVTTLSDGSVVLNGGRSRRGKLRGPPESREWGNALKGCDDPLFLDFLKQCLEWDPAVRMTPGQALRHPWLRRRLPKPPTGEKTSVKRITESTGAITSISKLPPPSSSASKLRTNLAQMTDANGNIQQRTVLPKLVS
Experimental: as §1

Sequence of TYK2 (P29597 whole entry): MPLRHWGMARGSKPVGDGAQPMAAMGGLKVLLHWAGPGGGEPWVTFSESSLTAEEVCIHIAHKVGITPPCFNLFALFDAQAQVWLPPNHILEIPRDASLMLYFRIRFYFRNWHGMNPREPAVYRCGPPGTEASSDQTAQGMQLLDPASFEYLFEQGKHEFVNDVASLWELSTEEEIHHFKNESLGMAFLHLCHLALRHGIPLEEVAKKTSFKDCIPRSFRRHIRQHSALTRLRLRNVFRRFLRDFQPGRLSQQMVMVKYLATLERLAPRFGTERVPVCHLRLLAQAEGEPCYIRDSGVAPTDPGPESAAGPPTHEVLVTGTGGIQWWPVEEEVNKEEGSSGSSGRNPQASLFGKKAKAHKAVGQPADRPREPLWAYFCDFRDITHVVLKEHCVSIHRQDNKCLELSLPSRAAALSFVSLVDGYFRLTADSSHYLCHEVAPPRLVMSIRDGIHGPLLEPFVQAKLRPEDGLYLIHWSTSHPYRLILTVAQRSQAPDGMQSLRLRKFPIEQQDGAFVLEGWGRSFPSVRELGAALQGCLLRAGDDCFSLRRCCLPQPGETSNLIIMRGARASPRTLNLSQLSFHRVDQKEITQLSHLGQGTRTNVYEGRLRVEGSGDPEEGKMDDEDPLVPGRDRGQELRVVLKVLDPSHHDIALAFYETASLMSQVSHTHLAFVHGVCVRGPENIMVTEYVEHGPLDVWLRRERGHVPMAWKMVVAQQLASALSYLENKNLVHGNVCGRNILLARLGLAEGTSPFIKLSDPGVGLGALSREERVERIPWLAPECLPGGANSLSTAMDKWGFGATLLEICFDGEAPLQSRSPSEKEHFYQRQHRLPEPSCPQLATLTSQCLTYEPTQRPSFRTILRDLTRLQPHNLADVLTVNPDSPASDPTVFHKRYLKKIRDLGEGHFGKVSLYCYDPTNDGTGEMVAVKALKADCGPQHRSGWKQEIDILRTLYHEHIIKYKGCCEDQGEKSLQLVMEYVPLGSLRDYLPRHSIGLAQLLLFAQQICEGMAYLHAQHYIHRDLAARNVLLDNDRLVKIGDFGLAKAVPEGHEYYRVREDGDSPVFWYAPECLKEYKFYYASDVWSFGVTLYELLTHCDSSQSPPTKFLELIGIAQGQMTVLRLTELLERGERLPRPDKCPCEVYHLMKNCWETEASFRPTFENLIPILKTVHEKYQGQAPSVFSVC
Sequence of BTK (Q06187 whole entry): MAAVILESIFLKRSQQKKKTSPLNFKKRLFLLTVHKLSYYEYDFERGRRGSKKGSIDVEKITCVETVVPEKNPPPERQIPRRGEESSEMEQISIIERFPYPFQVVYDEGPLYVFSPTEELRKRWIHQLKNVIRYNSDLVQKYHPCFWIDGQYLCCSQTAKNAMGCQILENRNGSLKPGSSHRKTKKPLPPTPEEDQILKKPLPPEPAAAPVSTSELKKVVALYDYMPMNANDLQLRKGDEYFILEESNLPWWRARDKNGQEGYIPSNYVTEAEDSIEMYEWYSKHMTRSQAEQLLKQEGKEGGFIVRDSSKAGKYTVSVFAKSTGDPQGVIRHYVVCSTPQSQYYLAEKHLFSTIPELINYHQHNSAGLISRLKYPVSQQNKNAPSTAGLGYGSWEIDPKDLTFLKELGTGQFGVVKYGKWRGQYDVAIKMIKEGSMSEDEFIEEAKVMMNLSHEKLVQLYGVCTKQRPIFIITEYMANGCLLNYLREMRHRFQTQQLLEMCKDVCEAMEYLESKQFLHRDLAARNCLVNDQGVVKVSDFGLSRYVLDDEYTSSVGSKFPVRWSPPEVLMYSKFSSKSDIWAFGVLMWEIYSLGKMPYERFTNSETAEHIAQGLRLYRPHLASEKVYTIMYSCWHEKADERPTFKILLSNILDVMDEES
Sequence of JAK1 (P23458 whole entry): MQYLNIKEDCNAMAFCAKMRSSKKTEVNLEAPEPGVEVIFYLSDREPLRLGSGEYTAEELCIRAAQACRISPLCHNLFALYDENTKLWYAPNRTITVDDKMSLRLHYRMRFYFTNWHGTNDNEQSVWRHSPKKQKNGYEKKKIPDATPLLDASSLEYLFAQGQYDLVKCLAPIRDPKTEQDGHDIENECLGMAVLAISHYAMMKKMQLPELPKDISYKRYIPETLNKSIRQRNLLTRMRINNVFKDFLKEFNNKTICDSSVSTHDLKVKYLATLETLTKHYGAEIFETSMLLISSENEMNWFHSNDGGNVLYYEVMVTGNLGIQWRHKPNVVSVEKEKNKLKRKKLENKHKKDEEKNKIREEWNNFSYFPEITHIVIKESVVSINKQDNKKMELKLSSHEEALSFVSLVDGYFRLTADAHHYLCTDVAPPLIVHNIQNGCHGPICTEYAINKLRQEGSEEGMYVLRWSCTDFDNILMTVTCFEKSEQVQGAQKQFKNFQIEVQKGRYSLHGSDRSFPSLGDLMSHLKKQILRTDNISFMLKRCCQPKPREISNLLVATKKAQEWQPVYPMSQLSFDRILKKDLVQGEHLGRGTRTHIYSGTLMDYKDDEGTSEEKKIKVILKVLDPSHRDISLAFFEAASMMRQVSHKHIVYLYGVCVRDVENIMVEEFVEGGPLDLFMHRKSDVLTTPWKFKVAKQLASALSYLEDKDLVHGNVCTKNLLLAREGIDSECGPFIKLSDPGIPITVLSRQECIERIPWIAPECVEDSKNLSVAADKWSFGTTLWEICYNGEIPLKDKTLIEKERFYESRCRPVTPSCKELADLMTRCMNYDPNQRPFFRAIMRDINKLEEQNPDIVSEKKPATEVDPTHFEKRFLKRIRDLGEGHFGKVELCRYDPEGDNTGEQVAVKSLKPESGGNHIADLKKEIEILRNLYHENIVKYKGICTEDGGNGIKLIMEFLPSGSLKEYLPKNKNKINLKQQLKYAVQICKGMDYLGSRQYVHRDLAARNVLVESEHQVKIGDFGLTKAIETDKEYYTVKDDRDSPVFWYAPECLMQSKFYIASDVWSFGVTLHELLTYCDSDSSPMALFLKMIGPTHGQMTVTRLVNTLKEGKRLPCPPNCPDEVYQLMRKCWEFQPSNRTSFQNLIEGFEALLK
Sequence of RSK2 (P51812 whole entry): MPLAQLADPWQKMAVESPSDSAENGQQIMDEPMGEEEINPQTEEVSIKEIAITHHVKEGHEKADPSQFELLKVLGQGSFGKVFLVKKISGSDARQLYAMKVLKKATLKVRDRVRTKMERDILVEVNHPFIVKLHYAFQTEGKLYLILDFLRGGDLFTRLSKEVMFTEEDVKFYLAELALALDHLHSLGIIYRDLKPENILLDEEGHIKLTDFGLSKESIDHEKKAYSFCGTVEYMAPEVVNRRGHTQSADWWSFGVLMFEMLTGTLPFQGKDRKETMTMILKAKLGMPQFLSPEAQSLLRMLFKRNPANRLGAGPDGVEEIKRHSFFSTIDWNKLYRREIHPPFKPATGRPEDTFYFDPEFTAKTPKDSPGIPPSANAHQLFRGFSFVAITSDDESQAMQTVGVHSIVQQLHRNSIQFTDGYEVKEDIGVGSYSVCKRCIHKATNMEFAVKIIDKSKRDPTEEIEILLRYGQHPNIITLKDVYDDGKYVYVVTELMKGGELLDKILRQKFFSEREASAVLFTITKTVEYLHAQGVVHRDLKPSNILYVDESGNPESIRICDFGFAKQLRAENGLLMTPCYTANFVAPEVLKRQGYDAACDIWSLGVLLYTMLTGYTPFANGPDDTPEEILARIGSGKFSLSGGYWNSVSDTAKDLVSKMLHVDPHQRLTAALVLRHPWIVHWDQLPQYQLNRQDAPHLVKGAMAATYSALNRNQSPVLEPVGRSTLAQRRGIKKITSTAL
Sequence of IGF1R (P08069 31-1367): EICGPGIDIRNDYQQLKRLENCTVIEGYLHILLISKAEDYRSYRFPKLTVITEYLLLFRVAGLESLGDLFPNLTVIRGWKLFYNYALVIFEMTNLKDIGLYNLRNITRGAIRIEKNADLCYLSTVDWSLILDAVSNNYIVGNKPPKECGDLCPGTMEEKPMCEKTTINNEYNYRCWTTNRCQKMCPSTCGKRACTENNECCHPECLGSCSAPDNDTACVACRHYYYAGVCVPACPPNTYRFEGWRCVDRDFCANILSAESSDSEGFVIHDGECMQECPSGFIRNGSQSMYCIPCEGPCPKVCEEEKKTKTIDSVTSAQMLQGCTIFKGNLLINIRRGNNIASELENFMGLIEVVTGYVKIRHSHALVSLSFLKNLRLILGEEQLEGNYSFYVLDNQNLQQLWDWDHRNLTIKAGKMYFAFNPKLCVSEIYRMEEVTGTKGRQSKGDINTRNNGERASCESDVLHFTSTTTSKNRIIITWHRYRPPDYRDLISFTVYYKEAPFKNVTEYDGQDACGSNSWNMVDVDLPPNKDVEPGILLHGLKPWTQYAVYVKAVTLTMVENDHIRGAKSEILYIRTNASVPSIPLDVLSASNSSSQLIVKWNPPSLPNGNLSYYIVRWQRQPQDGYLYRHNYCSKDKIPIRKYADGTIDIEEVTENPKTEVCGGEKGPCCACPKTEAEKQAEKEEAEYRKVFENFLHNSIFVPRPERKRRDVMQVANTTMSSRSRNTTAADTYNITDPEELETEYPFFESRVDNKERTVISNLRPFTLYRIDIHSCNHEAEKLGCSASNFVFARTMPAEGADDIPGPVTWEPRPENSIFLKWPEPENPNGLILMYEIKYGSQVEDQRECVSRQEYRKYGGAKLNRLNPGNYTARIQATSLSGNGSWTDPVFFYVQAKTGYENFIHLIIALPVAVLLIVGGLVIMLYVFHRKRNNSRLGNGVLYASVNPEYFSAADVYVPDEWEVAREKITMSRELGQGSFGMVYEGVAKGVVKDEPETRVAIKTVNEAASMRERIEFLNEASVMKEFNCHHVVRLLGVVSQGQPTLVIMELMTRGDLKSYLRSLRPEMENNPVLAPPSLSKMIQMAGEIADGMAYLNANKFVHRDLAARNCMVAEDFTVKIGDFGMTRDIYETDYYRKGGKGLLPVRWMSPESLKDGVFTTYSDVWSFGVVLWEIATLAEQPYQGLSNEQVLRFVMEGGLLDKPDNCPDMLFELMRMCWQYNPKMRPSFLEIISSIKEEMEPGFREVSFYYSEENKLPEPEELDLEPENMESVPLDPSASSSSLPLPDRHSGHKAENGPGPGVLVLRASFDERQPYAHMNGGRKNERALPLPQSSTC

| SMILES | inhibition at 0.1 µM (MER) | inhibition at 1 µM (MER) | inhibition at 0.1 µM (RSK2) | inhibition at 1 µM (RSK2) | inhibition at 0.1 µM (JAK1) | inhibition at 1 µM (JAK1) | inhibition at 0.1 µM (TYK2) | inhibition at 1 µM (TYK2) | inhibition at 0.1 µM (BTK) | inhibition at 1 µM (BTK) | inhibition at 0.1 µM (IGF1R) | inhibition at 1 µM (IGF1R) | inhibition at 0.1 µM (DYRK2) | inhibition at 1 µM (DYRK2) | other results |
| --- | --- | --- | --- | --- | --- | --- | --- | --- | --- | --- | --- | --- | --- | --- | --- |
| COc1cc(-c2cc(-c3ccc(N4CCNCC4)cc3)cnc2C)cc(OC)c1OC [Compound 10, 1-(4-(6-methyl-5-(3,4,5-trimethoxyphenyl)pyridin-3-yl)phenyl)piperazine] | 8% | 36% | 1% | 1% | 2% | 2% | 2% | 1% | 1% | -2% | 0% | 0% | 2% | 1% | inhibition at 0.1 µM (TNIK; 100 nM): 71%; inhibition at 1 µM (TNIK; 1 μM): 98%; inhibition at 0.1 µM (MAP4K5; 100 nM): 43%; inhibition at 1 µM (MAP4K5; 1 μM): 86%; inhibition at 0.1 µM (ALK2; 100 nM): 67%; inhibition at 1 µM (ALK2; 1 μM): 99%; IC50 (BMP6; Table 7, read-out: Ligand Induced BMP6 IC50): 67 nM; IC50 (BMP6; cell-based signaling inhibition, read-out: BMP6 IC50): 100 ± 1 nM; inhibition at 0.1 µM (ALK6; 100 nM): 11%; inhibition at 1 µM (ALK6; 1 μM): 60% |
| COc1cc(-c2cc(-c3ccc(N4CCNCC4)cc3)cnc2N)cc(OC)c1OC [Compound 15, 5-(4-(piperazin-1-yl)phenyl)-3-(3,4,5-trimethoxyphenyl)pyridin-2-amine] | 30% | 76% | 0% | 4% | 1% | 0% | 0% | 0% | 3% | 20% | 2% | 4% | 2% | 0% | – |
